Where “and” joins values, the source holds several entries; their conditions need not be identical. Identical values can stand only once. Like-named read-outs stand apart in the source and are kept apart here.
Experiments:
Assay in all cases: Fluorescence polarization assay, FAM-labeled [AG]10 RNA and recombinant eIF4A
Type in all cases: binding
[1] = molecular target: T1, O. sinensis eIF4A His154Gly (Ophiocordyceps sinensis, UniProt A0A8H4LTQ8, H154G); conditions: for Kd: [AG]10 10 nM, compound 50 µM, read-out: Kd between eIF4A protein and RNA
T1 sequence (A0A8H4LTQ8 1-397 H154G): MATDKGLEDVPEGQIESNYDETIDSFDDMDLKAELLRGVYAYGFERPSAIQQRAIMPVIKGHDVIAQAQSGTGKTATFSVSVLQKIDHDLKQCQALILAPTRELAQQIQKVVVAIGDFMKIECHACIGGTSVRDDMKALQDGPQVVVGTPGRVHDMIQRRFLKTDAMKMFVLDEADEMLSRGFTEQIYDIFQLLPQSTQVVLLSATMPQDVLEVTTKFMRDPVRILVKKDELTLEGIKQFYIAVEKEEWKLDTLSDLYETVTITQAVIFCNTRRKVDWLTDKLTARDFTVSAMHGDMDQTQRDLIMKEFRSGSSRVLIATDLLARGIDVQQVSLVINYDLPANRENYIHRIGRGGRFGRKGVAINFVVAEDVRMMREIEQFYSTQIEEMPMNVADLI

[2] = molecular target: T2, H. sapiens eIF4A1 Phe163His (Homo sapiens, UniProt P60842, F163H); conditions: RocA 50 µM
T2 construct: His tag (N); made in house; host or cells: E. coli BL21 Star (DE3)
T2 sequence (P60842 whole entry F163H): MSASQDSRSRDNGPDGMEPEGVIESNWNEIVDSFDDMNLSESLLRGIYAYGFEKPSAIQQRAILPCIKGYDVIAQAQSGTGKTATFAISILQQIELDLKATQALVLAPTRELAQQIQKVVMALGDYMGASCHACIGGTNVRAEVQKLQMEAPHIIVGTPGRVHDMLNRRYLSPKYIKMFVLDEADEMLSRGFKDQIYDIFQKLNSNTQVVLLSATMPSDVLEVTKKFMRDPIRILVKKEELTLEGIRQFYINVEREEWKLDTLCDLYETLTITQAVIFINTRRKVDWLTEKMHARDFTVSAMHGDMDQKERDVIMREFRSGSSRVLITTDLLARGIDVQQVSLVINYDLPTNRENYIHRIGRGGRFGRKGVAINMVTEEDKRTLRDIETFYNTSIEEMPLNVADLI

[3] = molecular target: T3, H. sapiens eIF4A1 WT Phe163 (Homo sapiens, UniProt P60842); conditions: RocA 50 µM
T3 construct: His tag (N); made in house; host or cells: E. coli BL21 Star (DE3)
T3 sequence (P60842 whole entry): as the sequence (P60842 whole entry F163H) above, with H163F counted along it

[4] = [AG]10, ADP + Pi, RocA 50 µM, protein 0.01 μM
[5] = [AG]10, ADP + Pi, RocA 50 µM, protein 0.05 μM
[6] = [AG]10, ADP + Pi, RocA 50 µM, protein 0.075 μM
[7] = [AG]10, ADP + Pi, RocA 50 µM, protein 0.1 μM
[8] = [AG]10, ADP + Pi, RocA 50 µM, protein 0.5 μM
[9] = [AG]10, ADP + Pi, RocA 50 µM, protein 0.75 μM
[10] = [AG]10, ADP + Pi, RocA 50 µM, protein 1 μM
[11] = [AG]10, ADP + Pi, RocA 50 µM, protein 5 μM
[12] = [AG]10, ADP + Pi, RocA 50 µM, protein 7.5 μM
[13] = [AG]10, ADP + Pi, RocA 50 µM, protein 10 μM
[14] = [AG]10, ADP + Pi, RocA 50 µM, protein 25 μM
[15] = [AG]10, ADP + Pi, RocA 50 µM, protein 50 μM
[16] = [AG]10 RNA, AMP-PNP, RocA, protein concentration 0.01 μM
[17] = [AG]10 RNA, AMP-PNP, RocA, protein concentration 0.05 μM
[18] = [AG]10 RNA, AMP-PNP, RocA, protein concentration 0.075 μM
[19] = [AG]10 RNA, AMP-PNP, RocA, protein concentration 0.1 μM
[20] = [AG]10 RNA, AMP-PNP, RocA, protein concentration 0.75 μM
[21] = [AG]10 RNA, AMP-PNP, RocA, protein concentration 5 μM
[22] = [AG]10 RNA, AMP-PNP, RocA, protein concentration 7.5 μM
[23] = [AG]10 RNA, AMP-PNP, RocA, protein concentration 10 μM
[24] = [AG]10 RNA, AMP-PNP, RocA, protein concentration 25 μM
[25] = [AG]10 RNA, AMP-PNP, RocA, protein concentration 50 μM

SMILES: COc1ccc([C@@]23Oc4cc(OC)cc(OC)c4[C@]2(O)[C@H](O)[C@H](C(=O)N(C)C)[C@H]3c2ccccc2)cc1 [RocA, rocaglamide A]
- Kd ([1]; ADP + Pi (1 mM each)): 850 ± 120 nM
- Kd ([1]; AMP-PNP 1 mM): 370 ± 46 nM
- fluorescence polarization, Mean [1, 4]: 0.06011
- fluorescence polarization, replicates [1, 4]: -0.02732
- fluorescence polarization, Mean [1, 5]: 0.1202
- fluorescence polarization, replicates [1, 5]: 0.1284
- fluorescence polarization, Mean [1, 6]: 0.1339
- fluorescence polarization, replicates [1, 6]: 0.1284 and 0.1612 and 0.112
- fluorescence polarization, Mean [1, 7]: 0.1639
- fluorescence polarization, replicates [1, 7]: 0.2104 and 0.1284 and 0.153
- fluorescence polarization, Mean [1, 8]: 0.6885
- fluorescence polarization, replicates [1, 8]: 0.6858 and 0.5956
- fluorescence polarization, Mean [1, 9]: 0.6093
- fluorescence polarization, replicates [1, 9]: 0.5874 and 0.6038
- fluorescence polarization, Mean [1, 10]: 0.8743
- fluorescence polarization, replicates [1, 10]: 0.9071 and 0.9481
- fluorescence polarization, Mean [1, 11]: 1.648
- fluorescence polarization, replicates [1, 11]: 1.628 and 1.6612 and 1.653
- fluorescence polarization, Mean [1, 12]: 1.617
- fluorescence polarization, replicates [1, 12]: 1.6776 and 1.53 and 1.645
- fluorescence polarization, Mean [1, 13]: 1.686
- fluorescence polarization, replicates [1, 13]: 1.612 and 1.735 and 1.71
- fluorescence polarization, Mean [1, 14]: 1.735
- fluorescence polarization, replicates [1, 14]: 1.76 and 1.751 and 1.694
- fluorescence polarization, Mean [1, 15]: 1.7459
- fluorescence polarization, replicates [1, 15]: 1.735 and 1.76 and 1.743
- Fluorescence polarization, Replicate 1-3 [1, 16]: 0.04372 and 0.1339 and -0.005464
- fluorescence polarization, Mean [1, 16]: 0.05738
- Fluorescence polarization, Replicate 1-3 [1, 17]: 0.06831 and 0.1421 and -0.03005
- fluorescence polarization, Mean [1, 17]: 0.06011
- Fluorescence polarization, Replicate 1-3 [1, 18]: 0.06831 and 0.1339 and 0.1503
- fluorescence polarization, Mean [1, 18]: 0.1175
- Fluorescence polarization, Replicate 1-3 [1, 19]: 0.1667 and 0.0847 and 0.1995
- fluorescence polarization, Mean [1, 19]: 0.1503
- Fluorescence polarization, Replicate 1-3 ([1]; [AG]10 RNA, AMP-PNP, RocA, protein concentration 0.5 μM): 1.142 and 1.044 and 0.9536
- Fluorescence polarization, Replicate 1-3 [1, 20]: 0.9454 and 1.044 and 0.9126
- fluorescence polarization, Mean [1, 20]: 0.9672
- Fluorescence polarization, Replicate 1-3 ([1]; [AG]10 RNA, AMP-PNP, RocA, protein concentration 1 μM): 1.175 and 1.167 and 1.109
- Fluorescence polarization, Replicate 1-3 [1, 21]: 1.5847 and 1.5765 and 1.601
- fluorescence polarization, Mean [1, 21]: 1.587
- Fluorescence polarization, Replicate 1-3 [1, 22]: 1.511 and 1.56 and 1.601
- fluorescence polarization, Mean [1, 22]: 1.557
- Fluorescence polarization, Replicate 1-3 [1, 23]: 1.675 and 1.56 and 1.667
- fluorescence polarization, Mean [1, 23]: 1.634
- Fluorescence polarization, Replicate 1-3 [1, 24]: 1.5847 and 1.699 and 1.626
- fluorescence polarization, Mean [1, 24]: 1.637
- Fluorescence polarization, Replicate 1-3 [1, 25]: 1.65 and 1.626 and 1.691
- fluorescence polarization, Mean [1, 25]: 1.656
- fluorescence polarization, Mean ([2]; ADP + Pi, protein 0.01 μM): -0.03005
- fluorescence polarization, replicates ([2]; ADP + Pi, protein 0.01 μM): 0.07104 and -0.06011 and -0.1011
- fluorescence polarization, Mean ([2]; ADP + Pi, protein 0.05 μM): -0.008197
- fluorescence polarization, replicates ([2]; ADP + Pi, protein 0.05 μM): 0.03005 and 0.005464 and -0.06011
- fluorescence polarization, Mean ([2]; ADP + Pi, protein 0.075 μM): 0.02186
- fluorescence polarization, replicates ([2]; ADP + Pi, protein 0.075 μM): 0.03005 and 0.01366 and 0.02186
- fluorescence polarization, Mean ([2]; ADP + Pi, protein 0.1 μM): 0.01639
- fluorescence polarization, replicates ([2]; ADP + Pi, protein 0.1 μM): 0.04645 and -0.01913 and 0.02186
- fluorescence polarization, Mean ([2]; ADP + Pi, protein 0.5 μM): 0.08197
- fluorescence polarization, replicates ([2]; ADP + Pi, protein 0.5 μM): 0.04645 and 0.1038 and 0.09563
- fluorescence polarization, Mean ([2]; ADP + Pi, protein 0.75 μM): 0.06831
- fluorescence polarization, replicates ([2]; ADP + Pi, protein 0.75 μM): 0.1448 and -0.01913 and 0.07923
- fluorescence polarization, Mean ([2]; ADP + Pi, protein 1 μM): 0.1694
- fluorescence polarization, replicates ([2]; ADP + Pi, protein 1 μM): 0.2514 and 0.1694 and 0.08743
- fluorescence polarization, Mean ([2]; ADP + Pi, protein 5 μM): 0.3306
- fluorescence polarization, replicates ([2]; ADP + Pi, protein 5 μM): 0.3415 and 0.3661 and 0.2842
- fluorescence polarization, Mean ([2]; ADP + Pi, protein 7.5 μM): 0.4153
- fluorescence polarization, replicates ([2]; ADP + Pi, protein 7.5 μM): 0.3579 and 0.4973 and 0.3907
- fluorescence polarization, Mean ([2]; ADP + Pi, protein 10 μM): 0.5765
- fluorescence polarization, replicates ([2]; ADP + Pi, protein 10 μM): 0.694 and 0.5301 and 0.5055
- fluorescence polarization, Mean ([2]; ADP + Pi, protein 25 μM): 0.6311
- fluorescence polarization, replicates ([2]; ADP + Pi, protein 25 μM): 0.6366 and 0.7022 and 0.5546
- fluorescence polarization, Mean ([2]; ADP + Pi, protein 50 μM): 0.8251
- fluorescence polarization, replicates ([2]; ADP + Pi, protein 50 μM): 0.7268 and 0.8579 and 0.8907
- fluorescence polarization, Mean ([2]; AMP-PNP, protein 0.01 μM): -0.005464
- fluorescence polarization, Mean ([2]; AMP-PNP, protein 0.05 μM): 0.0847
- fluorescence polarization, Mean ([2]; AMP-PNP, protein 0.075 μM): 0.1721
- fluorescence polarization, Mean ([2]; AMP-PNP, protein 0.1 μM): 0.3169
- fluorescence polarization, replicates ([2]; AMP-PNP, protein 0.1 μM): 0.2705 and 0.3525 and 0.3279
- fluorescence polarization, Mean ([2]; AMP-PNP, protein 0.5 μM): 0.7951
- fluorescence polarization, replicates ([2]; AMP-PNP, protein 0.5 μM): 0.7705 and 0.7869 and 0.8279
- fluorescence polarization, Mean ([2]; AMP-PNP, protein 0.75 μM): 0.8306
- fluorescence polarization, replicates ([2]; AMP-PNP, protein 0.75 μM): 0.8361
- fluorescence polarization, Mean ([2]; AMP-PNP, protein 1 μM): 0.9317
- fluorescence polarization, Mean ([2]; AMP-PNP, protein 5 μM): 0.9536
- fluorescence polarization, Mean ([2]; AMP-PNP, protein 7.5 μM): 0.8907
- fluorescence polarization, Mean ([2]; AMP-PNP, protein 10 μM): 0.9481
- fluorescence polarization, Mean ([2]; AMP-PNP, protein 25 μM): 0.9481
- fluorescence polarization, Mean ([2]; AMP-PNP, protein 50 μM): 1
- fluorescence polarization, Mean ([3]; ADP + Pi, protein 0.01 μM): 0.08197
- fluorescence polarization, Mean ([3]; ADP + Pi, protein 0.05 μM): 0.09836
- fluorescence polarization, Mean ([3]; ADP + Pi, protein 0.075 μM): 0.06831
- fluorescence polarization, Mean ([3]; ADP + Pi, protein 0.1 μM): 0.1776
- fluorescence polarization, Mean ([3]; ADP + Pi, protein 0.5 μM): 0.5956
- fluorescence polarization, Mean ([3]; ADP + Pi, protein 0.75 μM): 0.735
- fluorescence polarization, Mean ([3]; ADP + Pi, protein 1 μM): 0.6831
- fluorescence polarization, Mean ([3]; ADP + Pi, protein 5 μM): 0.9481
- fluorescence polarization, Mean ([3]; ADP + Pi, protein 7.5 μM): 0.8825
- fluorescence polarization, Mean ([3]; ADP + Pi, protein 10 μM): 0.9699
- fluorescence polarization, Mean ([3]; ADP + Pi, protein 25 μM): 1.044
- fluorescence polarization, Mean ([3]; ADP + Pi, protein 50 μM): 1.0929
- fluorescence polarization, Mean ([3]; AMP-PNP, protein 0.01 μM): 0.2213
- fluorescence polarization, Mean ([3]; AMP-PNP, protein 0.05 μM): 0.7268
- fluorescence polarization, Mean ([3]; AMP-PNP, protein 0.075 μM): 0.4973
- fluorescence polarization, Mean ([3]; AMP-PNP, protein 0.1 μM): 0.765
- fluorescence polarization, Mean ([3]; AMP-PNP, protein 0.5 μM): 1.016
- fluorescence polarization, Mean ([3]; AMP-PNP, protein 0.75 μM): 1.0082
- fluorescence polarization, Mean ([3]; AMP-PNP, protein 1 μM): 1.049
- fluorescence polarization, Mean ([3]; AMP-PNP, protein 5 μM): 1.046
- fluorescence polarization, Mean ([3]; AMP-PNP, protein 7.5 μM): 1.123
- fluorescence polarization, Mean ([3]; AMP-PNP, protein 10 μM): 1.156
- fluorescence polarization, Mean ([3]; AMP-PNP, protein 25 μM): 1.142
- fluorescence polarization, Mean ([3]; AMP-PNP, protein 50 μM): 1.15

Source: publication PMC9977294, “A parasitic fungus employs mutated eIF4A to survive on rocaglate-synthesizing Aglaia plants” (eLife, 2023)
